In brackets after ≈: the same amount, converted by molar mass. Numbered stars: 1 amine (or outer) side, 2 acyl side, 3 side chain; on linkers, the order of the positions; unused ones are H or OH. Bridge positions count the residues as written; N and C are the ends. Square brackets hold non-standard residues; d marks the D form. Peptide text beside a SMILES is read from it. * marks the point of attachment. Orn(4R-OH,5R-OH) = O=C([C@H](C[C@@H](O)[C@@H](O)N[*:3])N[*:1])[*:2]; hTyr(3S-OH,4S-OH) = N[C@H](C(=O)O)[C@H](O)[C@@H](O)c1ccc(O)cc1; X1 = CCCCCOc1ccc(-c2cc(-c3ccc(C(=O)*)cc3)no2)cc1; Gln(3R-OH) = NC(=O)C[C@@H](O)[C@H](N)C(=O)O; Pro(3S-OH) = O=C(O)[C@H]1NCC[C@@H]1O; Hyp = O=C(O)[C@@H]1C[C@@H](O)CN1
What was measured:
[1] = system: Candida albicans; assay: Antifungal activity against wild type Candida albicans MY1055 assessed as growth inhibition after 24 hrs by NCCLS broth microdilution method in presence of human serum; type: functional; conditions: MY1055, 24 h; for MIC: read-out: MIC100
[2] = system: Meyerozyma guilliermondii; assay: Antifungal activity against wild type Candida guilliermondii CLY308 assessed as growth inhibition after 24 hrs by NCCLS broth microdilution method; type: functional; conditions: CLY308, 24 h; for MIC: read-out: MIC100
[3] = system: Candida albicans; assay: Antifungal activity against Candida albicans CAI4-R1 assessed as growth inhibition after 24 hrs by NCCLS broth microdilution method; type: functional; conditions: CAI4-R1, 24 h; for MIC: read-out: MIC100
[4] = system: Candida albicans; assay: Antifungal activity against wild type Candida albicans MY1055 assessed as growth inhibition after 24 hrs by NCCLS broth microdilution method; type: functional; conditions: MY1055, 24 h; for MIC: read-out: MIC100
[5] = system: Nakaseomyces glabratus; assay: Antifungal activity against wild type Candida glabrata MY1381 assessed as growth inhibition after 24 hrs by NCCLS broth microdilution method; type: functional; conditions: MY1381, 24 h; for MIC: read-out: MIC100
[6] = system: Candida parapsilosis; assay: Antifungal activity against wild type Candida parapsilosis ATCC 22019 assessed as growth inhibition after 24 hrs by NCCLS broth microdilution method; type: functional; conditions: Lodderomyces parapsilosis, ATCC 22019, 24 h; for MIC: read-out: MIC100
[7] = system: Aspergillus fumigatus; assay: Antifungal activity against Aspergillus fumigatus MF5668 caspofungin spontaneous resistance mutant assessed as growth inhibition after 24 hrs by NCCLS broth microdilution method; type: functional; conditions: MF5668, 24 h; for minimal effective concentration: read-out: MEC
[8] = system: Escherichia coli; assay: Antibacterial activity against Escherichia coli ATCC 25922 assessed as growth inhibition after 24 hrs by NCCLS broth microdilution method; type: functional; conditions: ATCC 25922, 24 h, read-out: MIC100
[9] = system: Candida albicans; assay: Antifungal activity against Candida albicans MY1055 infected in DBA/2 mouse assessed as reduction of log CFU in kidney administered 30 mins as ip tid post infection measured after 24 hrs; type: functional
[10] = system: Staphylococcus aureus; assay: Antibacterial activity against methicillin-sensitive Staphylococcus aureus MB2865 assessed as growth inhibition after 24 hrs by NCCLS broth microdilution method; type: functional; conditions: MB2865, 24 h, read-out: MIC100
[11] = system: Clavispora lusitaniae; assay: Antifungal activity against wild type Candida lusitaniae MY1396 assessed as growth inhibition after 24 hrs by NCCLS broth microdilution method; type: functional; conditions: MY1396, 24 h; for MIC: read-out: MIC100
[12] = system: Pichia kudriavzevii; assay: Antifungal activity against wild type Candida krusei CLY549 assessed as growth inhibition after 24 hrs by NCCLS broth microdilution method; type: functional; conditions: CLY549, 24 h; for MIC: read-out: MIC100
[13] = system: Cryptococcus neoformans; assay: Antifungal activity against capsular wild type Cryptococcus neoformans MY2061 assessed as growth inhibition after 24 hrs by NCCLS broth microdilution method; type: functional; conditions: MY2061, 24 h, read-out: MIC100
[14] = system: Candida albicans; assay: Antifungal activity against caspofungin-resistant Candida albicans CLY-16996 harboring 1,3-beta-D-glucan synthase component FKS1/FKS1 S645F mutant assessed as growth inhibition after 24 hrs by NCCLS broth microdilution method; type: functional; conditions: CLY-16996, 24 h
[15] = Inhibition of caspofungin-resistant Candida albicans CLY-16997 1,3-beta-D-glucan synthase component FKS1/FKS1 S645P mutant using UDP[6,3H]-glucose as substrate after 60 mins by liquid scintillation counting analysis
[16] = target: T1, Beta-1,3-glucan synthase (Candida albicans, UniProt O13383); assay: Inhibition of wild type Candida albicans MY1055 1,3-beta-D-glucan synthase using UDP[6,3H]-glucose as substrate after 60 mins by liquid scintillation counting analysis
T1 sequence (O13383 whole entry): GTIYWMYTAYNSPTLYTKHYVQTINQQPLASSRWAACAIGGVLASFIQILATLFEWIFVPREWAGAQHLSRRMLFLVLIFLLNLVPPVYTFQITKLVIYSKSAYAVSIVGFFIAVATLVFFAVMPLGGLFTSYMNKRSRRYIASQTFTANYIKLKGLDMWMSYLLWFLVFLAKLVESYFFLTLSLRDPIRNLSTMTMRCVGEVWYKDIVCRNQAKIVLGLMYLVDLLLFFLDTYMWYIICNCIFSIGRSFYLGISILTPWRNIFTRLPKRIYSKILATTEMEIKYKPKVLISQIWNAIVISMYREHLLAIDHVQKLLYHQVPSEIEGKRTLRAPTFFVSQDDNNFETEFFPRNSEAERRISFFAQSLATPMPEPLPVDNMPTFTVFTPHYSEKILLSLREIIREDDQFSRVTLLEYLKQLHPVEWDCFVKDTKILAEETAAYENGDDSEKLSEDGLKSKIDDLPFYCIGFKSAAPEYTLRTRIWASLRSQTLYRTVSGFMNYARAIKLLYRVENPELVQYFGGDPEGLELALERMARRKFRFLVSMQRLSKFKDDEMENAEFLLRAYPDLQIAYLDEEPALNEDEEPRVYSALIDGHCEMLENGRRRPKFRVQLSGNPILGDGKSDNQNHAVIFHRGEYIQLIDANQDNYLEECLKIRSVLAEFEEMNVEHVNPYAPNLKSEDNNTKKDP

[17] = Inhibition of caspofungin-resistant Candida albicans CLY-16996 1,3-beta-D-glucan synthase component FKS1/FKS1 S645F mutant using UDP[6,3H]-glucose as substrate after 60 mins by liquid scintillation counting analysis
[18] = system: Candida albicans; assay: Antifungal activity against Candida albicans NR3 assessed as growth inhibition after 24 hrs by NCCLS broth microdilution method; type: functional; conditions: NR3, 24 h; for MIC: read-out: MIC100
[19] = system: Candida albicans; assay: Antifungal activity against wild type Candida albicans CAI4 assessed as growth inhibition after 24 hrs by NCCLS broth microdilution method; type: functional; conditions: CAI4, 24 h; for MIC: read-out: MIC100

## CCCCCOc1ccc(-c2cc(-c3ccc(C(=O)N[C@H]4C[C@@H](O)[C@@H](O)NC(=O)[C@@H]5[C@@H](O)CCN5C(=O)[C@H]([C@H](O)CC(N)=O)NC(=O)[C@H]([C@H](O)[C@@H](O)c5ccc(O)cc5)NC(=O)[C@@H]5C[C@@H](O)CN5C(=O)[C@H]([C@@H](C)O)NC4=O)cc3)no2)cc1 (X1-[Orn(4R-OH,5R-OH)]T[Hyp][hTyr(3S-OH,4S-OH)][Gln(3R-OH)][Pro(3S-OH)]; lactam 1-C)
[1]
  MIC80: 0.25 µg/mL
  MIC: 1 µg/mL
[2]
  MIC80: 1 µg/mL (≈ 0.862 µM)
  MIC: 2 µg/mL (≈ 1.72 µM)
[3]
  MIC80: 1 µg/mL (≈ 0.862 µM)
  MIC: 4 µg/mL (≈ 3.45 µM)
[4]
  MIC80: < 0.03 µg/mL
  MIC: 0.125 µg/mL (≈ 0.108 µM)
[5]
  MIC80: 0.25 µg/mL (≈ 0.215 µM)
  MIC: 0.5 µg/mL (≈ 0.431 µM)
[6]
  MIC80: 2 µg/mL (≈ 1.72 µM)
  MIC: 32 µg/mL (≈ 27.6 µM)
[7]
  MIC80: < 0.03 µg/mL
  minimal effective concentration: > 32 µg/mL
[8]
  MIC: > 32 µg/mL
[9]
  ED90: 0.24 mg/kg/day
  ED99: 1.31 mg/kg/day
[10]
  MIC: > 32 µg/mL
[11]
  MIC80: < 0.03 µg/mL
  MIC: 0.125 µg/mL (≈ 0.108 µM)
[12]
  MIC80: 0.25 µg/mL (≈ 0.215 µM)
  MIC: 2 µg/mL (≈ 1.72 µM)
[13]
  MIC: > 32 µg/mL
[14]
  MIC: 2 µg/mL (≈ 1.72 µM)
[15]
  IC50: 2.4 nM
[16]
  IC50: 2.8 nM
[17]
  IC50: 2.1 nM
[18]
  MIC80: 4 µg/mL (≈ 3.45 µM)
  MIC: 8 µg/mL (≈ 6.9 µM)
[19]
  MIC80: < 0.03 µg/mL
  MIC: 0.06 µg/mL (≈ 0.0517 µM)

## CC[C@H](C)C[C@H](C)CCCCCCCCC(=O)N[C@H]1C[C@@H](O)[C@@H](NCCN)NC(=O)[C@@H]2[C@@H](O)CCN2C(=O)[C@H]([C@H](O)CCN)NC(=O)[C@H]([C@H](O)[C@@H](O)c2ccc(O)cc2)NC(=O)[C@@H]2C[C@@H](O)CN2C(=O)[C@H]([C@@H](C)O)NC1=O [CASPOFUNGIN]
[1]
  MIC80: 0.125 µg/mL
  MIC: 8 µg/mL
[2]
  MIC80: 0.25 µg/mL (≈ 0.229 µM)
  MIC: 1 µg/mL (≈ 0.915 µM)
[3]
  MIC80: 1 µg/mL (≈ 0.915 µM)
  MIC: > 32 µg/mL
[4]
  MIC80: < 0.03 µg/mL
  MIC: 0.06 µg/mL (≈ 0.0549 µM)
[5]
  MIC80: 0.06 µg/mL (≈ 0.0549 µM)
  MIC: 0.25 µg/mL (≈ 0.229 µM)
[6]
  MIC80: 0.25 µg/mL (≈ 0.229 µM)
  MIC: > 32 µg/mL
[7]
  MIC80: < 0.03 µg/mL
  minimal effective concentration: > 32 µg/mL
[8]
  MIC: > 32 µg/mL
[9]
  ED90: 0.02 mg/kg/day
  ED99: 0.15 mg/kg/day
[10]
  MIC: 32 µg/mL (≈ 29.3 µM)
[11]
  MIC80: < 0.03 µg/mL
  MIC: 0.5 µg/mL (≈ 0.457 µM)
[12]
  MIC80: 0.25 µg/mL (≈ 0.229 µM)
  MIC: 2 µg/mL (≈ 1.83 µM)
[13]
  MIC: 16 µg/mL (≈ 14.6 µM)
[14]
  MIC: 64 µg/mL (≈ 58.5 µM)
[15]
  IC50: > 9200 nM
[16]
  IC50: 0.24 nM
[17]
  IC50: > 92000 nM
[18]
  MIC80: 2 µg/mL (≈ 1.83 µM)
  MIC: > 32 µg/mL
[19]
  MIC80: < 0.03 µg/mL
  MIC: 0.125 µg/mL (≈ 0.114 µM)

Reference: ChEMBL document CHEMBL2385047, “Synthesis and antifungal evaluation of pentyloxyl-diphenylisoxazoloyl pneumocandins and echinocandins” (Bioorg Med Chem Lett, 2013)
